# What was measured:
# A. fumigatus s 1008 = experiment: In vitro MIC, NCCLS M38P broth method (RPMI 1640/MOPS pH7), Aspergillus fumigatus; assay type: cell-based; conditions: A. fumigatus strain 1008
# Candida = experiment: In vitro MIC, NCCLS M27A, Candida species; assay type: cell-based; set-up: MIC, Candida albicans 1.549 / MIC, Candida albicans Y-01-19 / MIC, C. krusei 766-1 / MIC, C. krusei Q. C / MIC, Candida tropicalis ATCC / MIC, C. glabrata 90030: unit not given beside the values; MIC, Candida albicans A 26 / MIC, C. parapsilosis Q. C.: unit not given here; conditions: for MIC, C. glabrata 90030: C. glabrata strain 90030; for MIC, C. krusei 766-1: C. krusei strain 766-1; for MIC, C. krusei Q. C: C. krusei strain Q. C; for MIC, C. parapsilosis Q. C.: C. parapsilosis strain Q. C.; for MIC, Candida albicans 1.549: Candida albicans strain 1.549; for MIC, Candida albicans A 26: Candida albicans strain A 26; for MIC, Candida albicans Y-01-19: Candida albicans strain Y-01-19
# Cryptococcus neoformans = experiment: In vitro MIC, NCCLS M27A, Cryptococcus neoformans; assay type: cell-based; set-up: MIC, C. neoformans I: unit not given beside the values; MIC, C. neoformans M 106: unit not given here; conditions: for MIC, C. neoformans I: C. neoformans strain I; for MIC, C. neoformans M 106: C. neoformans strain M 106
# Histoplasma capsulatum = assay type: cell-based
SMILES,"MIC, A. fumigatus 1008 (A. fumigatus s 1008)","MIC, C. glabrata 90030 (Candida)","MIC, C. krusei 766-1 (Candida)","MIC, C. krusei Q. C (Candida)","MIC, C. parapsilosis Q. C. (Candida)","MIC, Candida albicans 1.549 (Candida)","MIC, Candida albicans A 26 (Candida)","MIC, Candida albicans Y-01-19 (Candida)","MIC, Candida tropicalis ATCC (Candida)","MIC, C. neoformans I (Cryptococcus neoformans)","MIC, C. neoformans M 106 (Cryptococcus neoformans)","MIC, H. capsulatum (Histoplasma capsulatum) [µg/mL]",melting point [°C]
"O=c1n(-c2ccc(N3CCN(c4ccc(Cl)c(Cl)c4)CC3)cc2)cnn1CC(O)(Cn1cncn1)c1ccc(F)cc1F (stereo not drawn) [Compound 37, 2-[2-(2,4-Difluorophenyl)-2-hydroxy-3-(1H-1,2,4-triazol-1-yl)propyl]-4-{4-[4-(3,4-dichlorophenyl)-1-piperazinyl]phenyl}-3-(2H,4H)-1,2,4-triazolone]",>16,0.12,0.25,0.06,<0.03,0.06,<0.03,0.06,<0.03,<0.03,<0.03,< 0.03,194 to 196
"O=c1n(-c2ccc(N3CCN(c4ccc(Cl)cc4Cl)CC3)cc2)cnn1CC(O)(Cn1cncn1)c1ccc(F)cc1F (stereo not drawn) [Compound 50, 2-[2-(2,4-Difluorophenyl)-2-hydroxy-3-(1H-1,2,4-triazol-1-yl)propyl]-4-{4-[4-(2,4-dichlorophenyl)-1-piperazinyl]phenyl}-3-(2H,4H)-1,2,4-triazolone]",2.00,0.50,0.50,0.25,<0.03,0.12,<0.03,0.12,<0.03,<0.03,<0.03,< 0.03,97 to 99
"Cc1ccc(N2CCN(c3ccc(-n4cnn(CC(O)(Cn5cncn5)c5ccc(F)cc5F)c4=O)cc3)CC2)c(C)c1 (stereo not drawn) [Compound 54, 2-[2-(2,4-Difluorophenyl)-2-hydroxy-3-(1H-1,2,4-triazol-1-yl)propyl]-4-{4-[4-(2,4-dimethylphenyl)-1-piperazinyl]phenyl}-3-(2H,4H)-1,2,4-triazolone]",2.00,1.00,0.50,0.12,<0.03,8.00,<0.03,0.12,<0.03,<0.03,<0.03,0.06,76 to 77
"O=c1n(-c2ccc(N3CCN(c4ccc(F)c(F)c4F)CC3)cc2)cnn1CC(O)(Cn1cncn1)c1ccc(F)cc1F (stereo not drawn) [Compound 63, 2-[2-(2,4-Difluorophenyl)-2-hydroxy-3-(1H-1,2,4-triazol-1-yl)propyl]-4-{4-[4-(2,3,4-trifluorophenyl)-1-piperazinyl]phenyl}-3-(2H,4H)-1,2,4-triazolone]",>16,0.50,8.00,0.25,<0.03,0.06,<0.03,0.12,<0.03,<0.03,<0.03,< 0.03,186 to 187
"O=c1n(-c2ccc(N3CCN(c4ccccc4F)CC3)cc2)cnn1CC(O)(Cn1cncn1)c1ccc(F)cc1F (stereo not drawn) [Compound 62, 2-[2-(2,4-Difluorophenyl)-2-hydroxy-3-(1H-1,2,4-triazol-1-yl)propyl]-4-{4-[4-(2-fluorophenyl)-1-piperazinyl]phenyl}-3-(2H,4H)-1,2,4-triazolone]",16.00,1.00,2.00,0.50,<0.03,4.00,<0.03,0.50,<0.03,<0.03,0.12,< 0.03,74 to 76
"O=c1n(-c2ccc(N3CCN(c4ccc(O)cc4)CC3)cc2)cnn1CC(O)(Cn1cncn1)c1ccc(F)cc1F (stereo not drawn) [Compound 44, 2-[2-(2,4-Difluorophenyl)-2-hydroxy-3-(1H-1,2,4-triazol-1-yl)propyl]-4-{4-[4-(4-hydroxyphenyl)-1-piperazinyl]phenyl}-3-(2H,4H)-1,2,4-triazolone]",>12.5,6.25,>12.5,6.25,0.20,>12.5,>12.5,1.56,6.25,1.56,3.12,1.56,246 to 248
"COc1ccc(N2CCN(c3ccc(-n4cnn(CC(O)(Cn5cncn5)c5ccc(F)cc5F)c4=O)cc3)CC2)cc1 (stereo not drawn) [Compound 41, 2-[2-(2,4-Difluorophenyl)-2-hydroxy-3-(1H-1,2,4-triazol-1-yl)propyl]-4-{4-[4-(4-methoxyphenyl)-1-piperazinyl]phenyl}-3-(2H,4H)-1,2,4-triazolone]",6.25,0.80,1.56,0.40,<0.02,0.05,<0.02,0.10,3.12,0.10,0.40,< 0.02,183 to 186
"O=c1n(-c2ccc(N3CCN(c4ccc(F)c(Cl)c4)CC3)cc2)cnn1CC(O)(Cn1cncn1)c1ccc(F)cc1F (stereo not drawn) [Compound 53, 2-[2-(2,4-Difluorophenyl)-2-hydroxy-3-(1H-1,2,4-triazol-1-yl)propyl]-4-{4-[4-(3-chloro-4-fluorophenyl)-1-piperazinyl]phenyl}-3-(2H,4H)-1,2,4-triazolone]",4.00,0.50,0.50,0.12,<0.03,0.06,<0.03,<0.03,<0.03,<0.03,<0.03,< 0.03,182 to 185
"Cc1ccc(N2CCN(c3ccc(-n4cnn(CC(O)(Cn5cncn5)c5ccc(F)cc5F)c4=O)cc3)CC2)cc1 (stereo not drawn) [Compound 39, 2-[2-(2,4-Difluorophenyl)-2-hydroxy-3-(1H-1,2,4-triazol-1-yl)propyl]-4-{4-[4-(4-methylphenyl)-1-piperazinyl]phenyl}-3-(2H,4H)-1,2,4-triazolone]",6.25,0.10,0.80,0.10,<0.02,0.10,<0.02,0.02,6.25,<0.02,0.05,0.05,146 to 148
